Source: PubChem BioAssay (NCI)
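Interpolation was linear, between the two tested concentrations surrounding the appropriate level; five concentrations were tested over 48 hours in 96-well plates. Abbreviation: GI50, concentration required for 50% inhibition of growth. TGI: concentration producing complete growth inhibition.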

Columns and labels:
Experiment in all cases: inhibition of tumour cell growth, NCI panel, 48 h
NCI-H460 lung = test system: NCI-H460 lung
T-47D breast = test system: T-47D breast
HCT-15 colon = test system: HCT-15 colon
786-0 renal = test system: 786-0 renal
HL-60(TB) leukemia = test system: HL-60(TB) leukemia
NCI-H522 lung = test system: NCI-H522 lung
HCT-116 colon = test system: HCT-116 colon
MCF7 breast = test system: MCF7 breast
UACC-62 melanoma = test system: UACC-62 melanoma
A498 renal = test system: A498 renal
SK-MEL-5 melanoma = test system: SK-MEL-5 melanoma
SW-620 colon = test system: SW-620 colon
KM12 colon = test system: KM12 colon
BT-549 breast = test system: BT-549 breast
IGROV1 ovarian = test system: IGROV1 ovarian
MDA-MB-231 breast = test system: MDA-MB-231 breast
HT29 colon = test system: HT29 colon
HOP-92 NSCLC = test system: HOP-92 NSCLC
NCI/ADR-RES ovarian = test system: NCI/ADR-RES ovarian
OVCAR-3 ovarian = test system: OVCAR-3 ovarian
OVCAR-8 ovarian = test system: OVCAR-8 ovarian
DU-145 prostate = test system: DU-145 prostate
MALME-3M melanoma = test system: MALME-3M melanoma
SNB-75 CNS = test system: SNB-75 CNS
ACHN renal = test system: ACHN renal
OVCAR-4 ovarian = test system: OVCAR-4 ovarian
HCC-2998 colon = test system: HCC-2998 colon
OVCAR-5 ovarian = test system: OVCAR-5 ovarian
A549 NSCLC = test system: A549 NSCLC
SK-OV-3 ovarian = test system: SK-OV-3 ovarian
HOP-62 NSCLC = test system: HOP-62 NSCLC
COLO 205 colon = test system: COLO 205 colon
RPMI-8226 leukemia = test system: RPMI-8226 leukemia
U251 CNS = test system: U251 CNS
PC-3 prostate = test system: PC-3 prostate
CCRF-CEM leukemia = test system: CCRF-CEM leukemia
UACC-257 melanoma = test system: UACC-257 melanoma
MDA-MB-435 = test system: MDA-MB-435
K-562 leukemia = test system: K-562 leukemia
SF-539 CNS = test system: SF-539 CNS
NCI-H226 lung = test system: NCI-H226 lung
M14 melanoma = test system: M14 melanoma
CAKI-1 renal = test system: CAKI-1 renal
SR leukemia = test system: SR leukemia
LOX IMVI melanoma = test system: LOX IMVI melanoma
SK-MEL-28 melanoma = test system: SK-MEL-28 melanoma
SN12C renal = test system: SN12C renal
NCI-H23 lung = test system: NCI-H23 lung
RXF 393 renal = test system: RXF 393 renal
HS 578T breast = test system: HS 578T breast
TK-10 renal = test system: TK-10 renal
SF-295 CNS = test system: SF-295 CNS
UO-31 renal = test system: UO-31 renal
SF-268 CNS = test system: SF-268 CNS
SNB-19 CNS = test system: SNB-19 CNS
MOLT-4 leukemia = test system: MOLT-4 leukemia

`CCCCC(O)(c1ccc(Cl)cc1)C(CN1CCOCC1)c1ccc(Cl)cc1` (configuration not stated) showed a GI50 (NCI-H460 lung) of 10.7 µM, a TGI (NCI-H460 lung) of 25.7 µM and a GI50 (T-47D breast) of 11.3 µM. The TGI (T-47D breast) was 25 µM, the GI50 (HCT-15 colon) was 11.2 µM and the TGI (HCT-15 colon) was 26.2 µM. The GI50 (786-0 renal) was 13.6 µM, the TGI (786-0 renal) was 27.5 µM and the GI50 (HL-60(TB) leukemia) was 16.7 µM. It also gave a TGI (HL-60(TB) leukemia) of 39.5 µM, a GI50 (NCI-H522 lung) of 7.26 µM and a TGI (NCI-H522 lung) of 21.7 µM. The GI50 (HCT-116 colon) was 5.23 µM, the TGI (HCT-116 colon) was 20.3 µM and the GI50 (MCF7 breast) was 10.6 µM. For the same compound, the TGI (MCF7 breast) was 24.5 µM, the GI50 (UACC-62 melanoma) was 12.4 µM and the TGI (UACC-62 melanoma) was 28.7 µM. The GI50 (A498 renal) was 11.1 µM, the TGI (A498 renal) was 24.1 µM and the GI50 (SK-MEL-5 melanoma) was 13.8 µM. The TGI (SK-MEL-5 melanoma) was 28.7 µM, the GI50 (SW-620 colon) was 11.5 µM and the TGI (SW-620 colon) was 25.3 µM. It also gave a GI50 (KM12 colon) of 12.2 µM, a TGI (KM12 colon) of 29.1 µM and a GI50 (BT-549 breast) of 15.7 µM. For the same compound, the TGI (BT-549 breast) was 31 µM, the GI50 (IGROV1 ovarian) was 8.68 µM and the TGI (IGROV1 ovarian) was 33 µM. It also gave a GI50 (MDA-MB-231 breast) of 12.7 µM, a TGI (MDA-MB-231 breast) of 27.7 µM and a GI50 (HT29 colon) of 4.14 µM. It also gave a TGI (HT29 colon) of 18.2 µM, a GI50 (HOP-92 NSCLC) of 10.6 µM and a TGI (HOP-92 NSCLC) of 23.6 µM. For the same compound, the GI50 (NCI/ADR-RES ovarian) was 12 µM, the TGI (NCI/ADR-RES ovarian) was 32.2 µM and the GI50 (OVCAR-3 ovarian) was 14.5 µM. The TGI (OVCAR-3 ovarian) was 28 µM, the GI50 (OVCAR-8 ovarian) was 15.7 µM and the TGI (OVCAR-8 ovarian) was 42 µM. For the same compound, the GI50 (DU-145 prostate) was 15.7 µM, the TGI (DU-145 prostate) was 29.8 µM and the GI50 (MALME-3M melanoma) was 15.6 µM. For the same compound, the TGI (MALME-3M melanoma) was 33.8 µM, the GI50 (SNB-75 CNS) was 16.8 µM and the TGI (SNB-75 CNS) was 44.7 µM. The GI50 (ACHN renal) was 14.4 µM, the TGI (ACHN renal) was 28.5 µM and the GI50 (OVCAR-4 ovarian) was 13.6 µM. It also gave a TGI (OVCAR-4 ovarian) of 29 µM, a GI50 (HCC-2998 colon) of 12.3 µM and a TGI (HCC-2998 colon) of 26.8 µM. It also gave a GI50 (OVCAR-5 ovarian) of 10.7 µM, a TGI (OVCAR-5 ovarian) of 23.7 µM and a GI50 (A549 NSCLC) of 12.5 µM. For the same compound, the TGI (A549 NSCLC) was 30.9 µM, the GI50 (SK-OV-3 ovarian) was 15.2 µM and the TGI (SK-OV-3 ovarian) was 47.1 µM. It also gave a GI50 (HOP-62 NSCLC) of 16.3 µM, a TGI (HOP-62 NSCLC) of 34.5 µM and a GI50 (COLO 205 colon) of 10.8 µM. The TGI (COLO 205 colon) was 25.5 µM, the GI50 (RPMI-8226 leukemia) was 10.4 µM and the TGI (RPMI-8226 leukemia) was 36.2 µM. The GI50 (U251 CNS) was 13.6 µM, the TGI (U251 CNS) was 27.5 µM and the GI50 (PC-3 prostate) was 7.68 µM. For the same compound, the TGI (PC-3 prostate) was 23.9 µM, the GI50 (CCRF-CEM leukemia) was 14.3 µM and the TGI (CCRF-CEM leukemia) was 36.2 µM. It also gave a GI50 (UACC-257 melanoma) of 14.3 µM, a TGI (UACC-257 melanoma) of 35 µM and a GI50 (MDA-MB-435) of 15.3 µM. For the same compound, the TGI (MDA-MB-435) was 39 µM, the GI50 (K-562 leukemia) was 12.2 µM and the TGI (K-562 leukemia) was 41.1 µM. The GI50 (SF-539 CNS) was 17 µM, the TGI (SF-539 CNS) was 36.6 µM and the GI50 (NCI-H226 lung) was 11.8 µM. The TGI (NCI-H226 lung) was 28.8 µM, the GI50 (M14 melanoma) was 13.8 µM and the TGI (M14 melanoma) was 33.4 µM. It also gave a GI50 (CAKI-1 renal) of 14.6 µM, a TGI (CAKI-1 renal) of 32.6 µM and a GI50 (SR leukemia) of 12.5 µM. It also gave a TGI (SR leukemia) of 32.3 µM, a GI50 (LOX IMVI melanoma) of 14.4 µM and a TGI (LOX IMVI melanoma) of 28.3 µM. For the same compound, the GI50 (SK-MEL-28 melanoma) was 15.9 µM, the TGI (SK-MEL-28 melanoma) was 33.9 µM and the GI50 (SN12C renal) was 12.6 µM. It also gave a TGI (SN12C renal) of 28.5 µM, a GI50 (NCI-H23 lung) of 10.6 µM and a TGI (NCI-H23 lung) of 28.7 µM. It also gave a GI50 (RXF 393 renal) of 8.15 µM, a TGI (RXF 393 renal) of 22.8 µM and a GI50 (HS 578T breast) of 16.8 µM. The TGI (HS 578T breast) was 46.5 µM, the GI50 (TK-10 renal) was 16.6 µM and the TGI (TK-10 renal) was 31.2 µM. The GI50 (SF-295 CNS) was 14.4 µM, the TGI (SF-295 CNS) was 30.7 µM and the GI50 (UO-31 renal) was 12.2 µM. The TGI (UO-31 renal) was 26.2 µM, the GI50 (SF-268 CNS) was 12.6 µM and the TGI (SF-268 CNS) was 27.2 µM. It also gave a GI50 (SNB-19 CNS) of 15.3 µM, a TGI (SNB-19 CNS) of 36.6 µM and a GI50 (MOLT-4 leukemia) of 10.7 µM. For the same compound, the TGI (MOLT-4 leukemia) was 30.7 µM.
